According to patent US8536164B2, “Fused pyridine compounds as casein kinase inhibitors” (Pfizer Inc., priority 2010, dated 2013):

Key:
[1] = target: CKIδ wild type (Homo sapiens, UniProt P48730); assay: CK1δ kinase assay (Kinase-Glo); format: biochemical; settings: 10 μM ATP, 2 nM CKIδ, 85 min at 25° C.; read-out: CK1 δ IC50
Experimental: (§1) The CK1δ kinase assay was performed in a 40 μl final volume in buffer containing 50 mM Tris, pH 7.5, 10 mM MgCl2, 1 mM dithiothreitol, 100 μg/mL BSA with 10 μM ATP, 2 nM CKIδ wild type, and 42 μM peptide substrate PLSRTLp[…] (Flotow et al., 1990) in the presence of 1 μl of CKIδ inhibitor or 4% DMSO. The reaction was incubated for 85 min at 25° C.; detection was carried out as described for the Kinase-Glo Assay (Promega). Luminescent output was measured on the Perkin Elmer Envision plate reader (PerkinElmer, Waltham, Mass.).

[2] = target: CKI ε wild type (Homo sapiens, UniProt P49674); assay: CK1ε kinase assay (Kinase-Glo); format: biochemical; settings: 10 μM ATP, 2.5 nM CKI ε, 70 min at 25° C.; read-out: CK1 ε:IC50
Chain of CKI ε wild type (P49674 whole entry): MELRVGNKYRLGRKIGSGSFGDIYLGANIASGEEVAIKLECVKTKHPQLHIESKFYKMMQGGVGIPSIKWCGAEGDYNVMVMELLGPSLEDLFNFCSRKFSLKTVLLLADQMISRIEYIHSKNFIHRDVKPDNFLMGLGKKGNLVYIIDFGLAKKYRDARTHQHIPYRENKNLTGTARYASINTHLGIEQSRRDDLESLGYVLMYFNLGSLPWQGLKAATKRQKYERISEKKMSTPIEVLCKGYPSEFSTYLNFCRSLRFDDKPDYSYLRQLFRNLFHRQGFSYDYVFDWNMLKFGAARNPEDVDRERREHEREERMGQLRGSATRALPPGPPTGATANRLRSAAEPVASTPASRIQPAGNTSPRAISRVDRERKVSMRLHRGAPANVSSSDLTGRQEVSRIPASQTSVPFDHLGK
Experimental: as §1, with “The CK1ε” for “The CK1δ”, “a 40-μl” for “a 40 μl”, “ATP, 2.5” for “ATP, 2”, “nM CKI ε” for “nM CKIδ”, “of CKI ε” for “of CKIδ”, “for 70” for “for 85”

[3] = target: T1, human CK1δ (Cos 7 cells cotransfected with mouse Per3-GFP) (Homo sapiens, UniProt P48730); assay: CK1 WCA HCS nuclear translocation assay (CK1δ); format: cell-based; settings: inhibition of mPer3-GFP translocation to the nucleus, overnight exposure, read-out: CK1 δ WCA EC50
T1 construct: His tag of the vector pcDNA4/hisA (only the vector name is printed); expressed in transfected cells; host or cells: Cos 7 cells
T1 sequence (P48730 whole entry): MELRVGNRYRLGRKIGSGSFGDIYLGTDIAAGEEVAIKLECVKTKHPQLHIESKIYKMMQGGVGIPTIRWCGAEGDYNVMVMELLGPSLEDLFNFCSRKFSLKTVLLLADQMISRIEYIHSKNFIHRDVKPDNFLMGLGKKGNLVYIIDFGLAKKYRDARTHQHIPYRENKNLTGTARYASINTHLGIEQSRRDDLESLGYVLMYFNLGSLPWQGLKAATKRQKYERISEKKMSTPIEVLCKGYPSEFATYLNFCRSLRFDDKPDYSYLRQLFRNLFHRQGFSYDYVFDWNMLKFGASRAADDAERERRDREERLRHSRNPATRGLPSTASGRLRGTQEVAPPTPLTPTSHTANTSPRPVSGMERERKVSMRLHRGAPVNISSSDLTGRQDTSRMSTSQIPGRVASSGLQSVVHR
Experimental: CK1 WCA HCS Nuclear Translocation Assay.
Cos 7 cells were maintained at 37° C. in 5% CO2 in Dulbecco's Modified Eagle Medium (Gibco 11995) supplemented with 10% fetal bovine serum. Log-phase cells were dislodged with 5 min treatment of TrypLE Express (Gibco 12605) and viable cell count was determined with Cedex cell counter. Cells were diluted in DMEM medium to a density of 1.5e5 viable cells/mL in ⅔ of the final volume of final transfected cell mix. Cells were cotransfected with two plasmid DNAs, mouse Per3-GFP (green fluorescent protein) in pd2EGFP-N1 vector and human CKI in pcDNA4/hisA vector (for CK1Epsilon at a ratio of 1:5 respectively; for CK1δ at a ratio of 1:11 respectively), using Lipofectamine 2000 reagent (Invitrogen) according to the manufacturer's recommendations. The transfection mix contained approximately 0.83 μg/mL of DNA and 6 μL/mL of Lipofectamine 2000, in a total of ⅓ of the final transfection volume in Opti-MEM I medium (Invitrogen). After 20 min at rt, the cell mix was combined with the DNA transfection mix, per manufacturer instructions. 50 μL of the transfected cell suspension was dispensed per well by multidrop dispenser into Greiner 384-well Cellcoat (PDL) plates (Greiner #781946).
Compounds were solubilized in 100% DMSO, diluted with Opti-MEM I to a 4× concentration before addition to plated cells. After overnight exposure at 37° C. in a CO2 incubator, cells were fixed by the addition of 12% paraformaldehyde (Electron Microscopy Sciences, Hatfield, Pa.) in phosphate-buffered saline (PBS) with 20% sucrose to a final concentration of 4%, and then the cells were incubated for 30 min at rt. Fixative was removed, and cells were washed with PBS and then stained with 0.4 μg/ml Hoechst dye (Invitrogen) in blocking buffer containing 4% goat serum (Vector Labs s-1000) and 0.1% TritonX (Sigma T8787) for 1 h. Cells were washed again with PBS and stored at 4° C. in PBS or scanned immediately with the Cellomics ArrayScan VTI. CKIδ dependent nuclear localization of the GFP-tagged mPer3 protein was quantitated using the Cellomics ArrayScan VTI system utilizing the Cytoplasm to Nucleus translocation bioapplication to calculate the Nuclear-Cytoplasmic Intensity difference. Inhibitors of CK1 δ/ε were tested across a dose response curve to evaluate their ability to inhibit mPer3-GFP translocation to the nucleus. Cells with a total intensity of mPER3:GFP expression equal to or greater than 20,000 are included in analysis.

Chain of CKIδ wild type (P48730 whole entry): as above

SMILES	IC50 [1] [nM]	IC50 [2] [nM]	EC50 [3] [nM]
Cn1cc(CN2Cc3nccc(-c4cn(C)nc4-c4ccc(F)cc4)c3C2=O)cn1 [Example 26, 4-[3-(4-fluorophenyl)-1-methyl-1H-pyrazol-4-yl]-6-[(1-methyl-1H-pyrazol-4-yl)methyl]-6,7-dihydro-5H-pyrrolo[3,4-b]pyridin-5-one]	22.6	123	125
Cc1c(CN2Cc3nccc(-c4cn(C)nc4-c4ccc(F)cc4)c3C2=O)cnn1C [Example 35, 6-[(1,5-dimethyl-1H-pyrazol-4-yl)methyl]-4-[3-(4-fluorophenyl)-1-methyl-1H-pyrazol-4-yl]-6,7-dihydro-5H-pyrrolo[3,4-b]pyridin-5-one]	23.3	130	104
COCCCN1Cc2nccc(-c3cn(C)nc3-c3ccc(F)cc3)c2C1=O [Example 29, 4-[3-(4-fluorophenyl)-1-methyl-1H-pyrazol-4-yl]-6-(3-methoxypropyl)-6,7-dihydro-5H-pyrrolo[3,4-b]pyridin-5-one]	26.2	131	217
Cn1cc(-c2ccnc3c2C(=O)N(C24CC(C2)C4)C3)c(-c2ccc(F)cc2)n1 [Example 48, 6-bicyclo[1.1.1]pent-1-yl-4-[3-(4-fluorophenyl)-1-methyl-1H-pyrazol-4-yl]-6,7-dihydro-5H-pyrrolo[3,4-b]pyridin-5-one]	18.4	80.7	130
Cn1cc(-c2ccnc3c2C(=O)N(CCOC(C)(C)C)C3)c(-c2ccc(F)cc2)n1 [Example 30, 6-(2-tert-butoxyethyl)-4-[3-(4-fluorophenyl)-1-methyl-1H-pyrazol-4-yl]-6,7-dihydro-5H-pyrrolo[3,4-b]pyridin-5-one]	27.7	149	159
Cn1cc(-c2ccnc3c2CCC3O)c(-c2ccc(F)cc2)n1 (stereo not drawn) [Example 24, 4-[3-(4-fluorophenyl)-1-methyl-1H-pyrazol-4-yl]-6,7-dihydro-5H-cyclopenta[b]pyridin-7-ol]	28.5	149	266
Cn1cc(-c2ccnc3c2C(=O)N(CC2CCOC2)C3)c(-c2ccc(F)cc2)n1 (stereo not drawn) [Example 27, 4-[3-(4-fluorophenyl)-1-methyl-1H-pyrazol-4-yl]-6-(tetrahydrofuran-3-ylmethyl)-6,7-dihydro-5H-pyrrolo[3,4-b]pyridin-5-one]	35.3	210	369
CN(C)C(=O)CN1Cc2nccc(-c3cn(C)nc3-c3ccc(F)cc3)c2C1=O [Example 43, 2-{4-[3-(4-fluorophenyl)-1-methyl-1H-pyrazol-4-yl]-5-oxo-5,7-dihydro-6H-pyrrolo[3,4-b]pyridin-6-yl}-N,N-dimethylacetamide]	93.2	512	564
Cn1cc(-c2ccnc3c2C(=O)N(Cc2ccccc2)C3)c(-c2ccc(F)cc2)n1 [Example 5, 6-benzyl-4-[3-(4-fluorophenyl)-1-methyl-1H-pyrazol-4-yl]-6,7-dihydro-5H-pyrrolo[3,4-b]pyridin-5-one]	6.05	39	16.4
CCOCCCN1Cc2nccc(-c3cn(C)nc3-c3ccc(F)cc3)c2C1=O [Example 51, 6-(3-ethoxypropyl)-4-[3-(4-fluorophenyl)-1-methyl-1H-pyrazol-4-yl]-6,7-dihydro-5H-pyrrolo[3,4-b]pyridin-5-one]	14.6	63.8	129
Cn1cc(-c2ccnc3c2C(=O)N(CCC#N)C3)c(-c2ccc(F)cc2)n1 [Example 40, 3-{4-[3-(4-fluorophenyl)-1-methyl-1H-pyrazol-4-yl]-5-oxo-5,7-dihydro-6H-pyrrolo[3,4-b]pyridin-6-yl}propanenitrile]	11.1	47.1	53.7
COCCN1Cc2nccc(-c3cn(C)nc3-c3ccc(F)cc3)c2C1=O [Example 42, 4-[3-(4-fluorophenyl)-1-methyl-1H-pyrazol-4-yl]-6-(2-methoxyethyl)-6,7-dihydro-5H-pyrrolo[3,4-b]pyridin-5-one]	67.3	386	623
CNC1CCc2c(-c3cn(C)nc3-c3ccc(F)cc3)ccnc21 (stereo not drawn) [Example 25, 4-[3-(4-fluorophenyl)-1-methyl-1H-pyrazol-4-yl]-N-methyl-6,7-dihydro-5H-cyclopenta[b]pyridin-7-amine]	17.4	83.7	59.8
Cc1cc(CN2Cc3nccc(-c4cn(C)nc4-c4ccc(F)cc4)c3C2=O)nn1C [Example 28, 6-[(1,5-dimethyl-1H-pyrazol-3-yl)methyl]-4-[3-(4-fluorophenyl)-1-methyl-1H-pyrazol-4-yl]-6,7-dihydro-5H-pyrrolo[3,4-b]pyridin-5-one]	15.7	86.4	66.4
COC[C@H]1CCC[C@H]1N1Cc2nccc(-c3cn(C)nc3-c3ccc(F)cc3)c2C1=O [Example 44, 4-[3-(4-fluorophenyl)-1-methyl-1H-pyrazol-4-yl]-6-[(1R,2S)-2-(methoxymethyl)cyclopentyl]-6,7-dihydro-5H-pyrrolo[3,4-b]pyridin-5-one]	70.8	342	437
CC(C)OC(=O)CN1Cc2nccc(-c3cn(C)nc3-c3ccc(F)cc3)c2C1=O [Example 49, isopropyl {4-[3-(4-fluorophenyl)-1-methyl-1H-pyrazol-4-yl]-5-oxo-5,7-dihydro-6H-pyrrolo[3,4-b]pyridin-6-yl}acetate]	108	496	506
Cn1cc(-c2ccnc3c2C(=O)N(Cc2cccc(C#N)c2)C3)c(-c2ccc(F)cc2)n1 [Example 41, 3-({4-[3-(4-fluorophenyl)-1-methyl-1H-pyrazol-4-yl]-5-oxo-5,7-dihydro-6H-pyrrolo[3,4-b]pyridin-6-yl}methyl)benzonitrile]	20.5	108	65.5
Cn1cc(-c2ccnc3c2C(=O)N(C2CCOCC2)C3)c(-c2ccc(F)cc2)n1 [Example 36, 4-[3-(4-fluorophenyl)-1-methyl-1H-pyrazol-4-yl]-6-(tetrahydro-2H-pyran-4-yl)-6,7-dihydro-5H-pyrrolo[3,4-b]pyridin-5-one]	> 195	> 516	224
Cn1cc(-c2ccnc3c2C(=O)N(C2CCCC2)C3)c(-c2ccc(F)cc2)n1 [Example 32, 6-cyclopentyl-4-[3-(4-fluorophenyl)-1-methyl-1H-pyrazol-4-yl]-6,7-dihydro-5H-pyrrolo[3,4-b]pyridin-5-one]	8.93	40.8	84.9
Cn1cc(-c2ccnc3c2C(=O)N(Cc2cccnc2)C3)c(-c2ccc(F)cc2)n1 [Example 50, 4-[3-(4-fluorophenyl)-1-methyl-1H-pyrazol-4-yl]-6-(pyridin-3-ylmethyl)-6,7-dihydro-5H-pyrrolo[3,4-b]pyridin-5-one]	21.3	145	83.6
